Target: T1, BRD4-BD1 (Homo sapiens, UniProt O60885)
T1 construct: 15 nM GST-BRD4-BD1 protein (aa 44-168)
Test: BRD4-H4 tetraacetylated peptide inhibition AlphaScreen
Format: binding
Conditions: 15 nM GST-BRD4-BD1 (aa 44-168), 15 nM biotinylated Acetyl-Histone H4 (Lys5, 8, 12, 16) peptide, 30 min at RT
Method: Biological Methods BRD4-H4 Tetraacetylated Peptide Inhibition AlphaScreen
Compounds are diluted in serial dilution 1:5 in assay buffer from 10 mM stock in DMSO (100 μM start concentration) in white OptiPlate-384 (PerkinElmer). A mix consisting of 15 nM GST-BRD4-BD1 protein (aa 44-168) or 150 nM GST-BRD4-BD2 (aa 333-460) and 15 nM biotinylated Acetyl-Histone H4 (Lys5, 8, 12, 16) peptide is prepared in assay buffer (50 mM HEPES pH=7.4; 25 mM NaCl; 0.05% Tween 20; 0.1% bovine serum albumin (BSA); 10 mM dithiothreitol (DTT)). 6 μl of the mix is added to the compound dilutions. Subsequently, 6 μl of premixed AlphaLISA Glutathione Acceptor Beads and AlphaScreen Streptavidin Donor Beads from PerkinElmer (in assay buffer at a concentration of 10 μg/ml each) are added and the samples are incubated for 30 min at RT in the dark (shaking 300 rpm). Afterwards, the signal is measured in a PerkinElmer Envision HTS Multilabel Reader using the AlphaScreen protocol from PerkinElmer.
Each plate contains negative controls where biotinylated Acetyl-Histone H4 peptide and GST-BRD4-BD1 or GST-BRD4-BD2 are left out and replaced by assay buffer. Negative control values are entered as low basis value when using the software GraphPad Prism for calculations. Furthermore, a positive control (probe molecule JQ1+ with protein/peptide mix) is pipetted. Determination of IC50 values are carried out using GraphPad Prism 3.03 software (or updates thereof).

Row | IC50 [nM] | SMILES
1 | 50 | COC[C@H](C)n1c(-c2cc(C)c(=O)n(C)c2)nc2cc3c(cc21)N(C)C(=O)C3(C)C [I-1, 2-(1,5-Dimethyl-6-oxo-1,6-dihydro-pyridin-3-yl)-3-((S)-2-methoxy-1-methyl-ethyl)-5,7,7-trimethyl-5,7-dihydro-3H-imidazo[4,5-f]indol-6-one]
2 | 3 | Cc1cc(-c2nc3cc4c(cc3n2[C@@H](C)c2ccccc2)N(C(C)C)C(=O)C4(C)C)cn(C)c1=O [I-2, 2-(1,5-Dimethyl-6-oxo-1,6-dihydro-pyridin-3-yl)-5-isopropyl-7,7-dimethyl-3-((S)-1-phenyl-ethyl)-5,7-dihydro-3H-imidazo[4,5-f]indol-6-one]
3 | 44 | Cc1cc(-c2nc3cc4c(cc3n2Cc2ccccn2)N(C)C(=O)C4(C)C)cn(C)c1=O [I-3]
4 | 22 | COC[C@H](C)n1c(-c2cc(C)c(=O)n(C)c2)nc2cc3c(cc21)N(C(C)C)C(=O)C3(C)C [I-4]
5 | 9 | Cc1nc(-c2nc3cc4c(cc3n2[C@@H](C)c2ccccc2)N(C(C)C)C(=O)C4(C)C)cn(C)c1=O [I-5]
6 | 15 | Cc1nc(-c2nc3cc4c(cc3n2[C@@H](C)c2ccccc2)N(C)C(=O)C4(C)C)cn(C)c1=O [I-6]
7 | 4 | Cc1cc(-c2nc3cc4c(cc3n2[C@@H](C)c2ccccc2)N(C)C(=O)C4(C)C)cn(C)c1=O [I-7]
8 | 2 | CCN1C(=O)C(C)(C)c2cc3nc(-c4cc(C)c(=O)n(C)c4)n([C@@H](C)c4ccccc4)c3cc21 [I-8]
9 | 17 | Cc1cc(-c2nc3cc4c(cc3n2[C@@H](C)c2ccccc2)N(C(C)C)C(=O)C42CC2)cn(C)c1=O [I-9]
10 | 13 | Cc1cc(-c2nc3cc4c(cc3n2[C@@H](C)c2ccccc2)C(=O)N(C)C4(C)C)cn(C)c1=O [II-1]
11 | 5 | Cc1cc(-c2nc3cc4c(C)nn(C)c4cc3n2[C@@H](C)c2ccccc2)cn(C)c1=O [III-1]
12 | 8 | CCn1nc(C)c2cc3nc(-c4cc(C)c(=O)n(C)c4)n([C@@H](C)c4ccccc4)c3cc21 [III-2]
13 | 9 | CCc1nn(C)c2cc3c(cc12)nc(-c1cc(C)c(=O)n(C)c1)n3[C@@H](C)c1ccccc1 [III-3]
